# Assays:
# Format in all cases: in vivo, mouse
# [1] = system: C57BL/6 male mice applied with chronic immobilization stress; experiment: Behavior analysis by ORT and OLT after CIS and glutamine supplementation; conditions: STR+Gln vs STR; glutamine 150 mg/kg of feed, after 15 days stress
# Method: Control (CTL) is a group which received normal diet (common diet with nutritional balance) without any stress, CTL+Gln group is a normal diet group supplemented with glutamine (150 mg/kg of feed) and without any stress, STR is a normal diet group under stress, and STR+Gln group is a normal diet group supplemented with glutamine (150 mg/kg of feed) under stress. The stress group (STR) was individually brought by force to a restrainer for 2 hours every day (i.e., between 2 PM and 4 PM) so that the animals are applied with chronic immobilization stress for 15 days. By using the cohorts of Example 1, behavior analysis was carried out. After applying the stress for 15 days, behavior analysis was immediately carried out. ORT includes three separate sessions, i.e., habituation, familiarization, and test. During 2 days of the habituation, the animals were allowed to stay in an empty open space for 10 minutes a day. After the habituation, they were subjected to familiarization by placing two identical objects in the open space. Mice of each test group were allowed to explore freely the object for 10 minutes. […] Discrimination index (DI) in ORT was then calculated according to the following formula (1). […] Discrimination index (DI) in OLT was then calculated according to the following formula (2). […]
# nNOS = experiment: Double-IHC protein expression after CIS and glutamine supplementation: nNOS; conditions: microglial cells in infralimbic cortex and hippocampal CA1 region; glutamine supplementation diet vs stress group
# Method: (§1) Control (CTL) is a group which received normal diet (common diet with nutritional balance) without any stress, CTL+Gln group is a normal diet group supplemented with glutamine (150 mg/kg of feed) and without any stress, STR is a normal diet group under stress, and STR+Gln group is a normal diet group supplemented with glutamine (150 mg/kg of feed) under stress. The stress group (STR) was individually brought by force to a restrainer for 2 hours every day (i.e., between 2 PM and 4 PM) so that the animals are applied with chronic immobilization stress for 15 days. To determine the specific changes in the brain tissues after glutamine supplementation, double staining was carried out with a cell marker so that the proteins related to a change in ROS/RNS content (i.e., iNOS; nNOS; and p47phox and p67phox as a subunit of NOX) with cell markers are analyzed by double-IHC (immunohistochemistry). Twenty-four hours after applying the last stress, the mouse was anesthetized with avertin, and perfused with PBS (pH 7.4) and 4% formaldehyde. After that, the brain was removed, fixed, and cut to a thickness with 40 μm. […]
# p67phox = experiment: Double-IHC protein expression after CIS and glutamine supplementation: p67phox; conditions: microglial cells in infralimbic cortex and hippocampal CA1 region; glutamine supplementation diet vs stress group
# Method: as §1
smiles,measurement,setting,value
NC(=O)CC[C@H](N)C(=O)O [glutamine],discrimination index (DI) in OLT,[1],higher DI
same,discrimination index (DI) in ORT,[1],higher DI
same,expression amount of nNOS,nNOS,statistically significant decrement
same,expression amount of p67phox,p67phox,statistically significant decrement
